In general, IC50 refers to the concentration that inhibits the measured activity by half.

From patent US7427418B2, “Phloridzin-rich phenolic fraction and use thereof as a cosmetic, dietary or nutraceutical agent” (Diana Ingredients S.A., priority 2001, dated 2008) come the findings set out here.

Data set [1] can be described thus: Water solubility of the powder. Type of data set: physicochemical. To be noted: in words.
Data set [2] deals with plasmid DNA damaged by OH° radical (hydrogen peroxide + UVB). Description: "3D" test (Damaged DNA Detection): protection of DNA against OH° radicals. Type of data set: biochemical. To be noted: for Specific protection: OH° radical. On the procedure:
The free-radical-scavenging effects of the phloridzin-rich polyphenolic fractions obtained according to the process of the invention were measured in vitro by the “3D” test (Damaged DNA Detection, Analytical Biochemistry, (1995), pp. 37-42).
The principle is based on repairing DNA lesions, the damaged DNA being used as a marker of protective efficacy of the test molecules with respect to free OH^∘ radicals: the reduction in lesions observed on the DNA is correlated with the trapping of the free radicals.
This test carried out on plasmid DNA allows the detection of genotoxic agents at the early stage of the lesion-mutation-cancerization process. Molecules or mixtures with antioxidant or free-radical-scavenging properties, which can thus protect a human cell from oxidative damage caused by reactive oxygenated species (ROSs), can thus be detected.
The protocol was as follows: • the target DNA was adsorbed onto sensitized wells and then incubated with genotoxic agents in the presence or absence of the polyphenolic extract to be tested (dissolved in an ethanol solution at 2% or in DMSO) or in the presence of catechin (control). In this test, the OH^∘ radical produced by homolytic cleavage of hydrogen peroxide was used as DNA-damaging genotoxic agent. The hydrogen peroxide was added to the wells, which were then irradiated with UVB rays (700 J/m^2). Furthermore, a positive repair control consisting of a plasmid DNA predamaged with ultraviolet C radiation was added; • a step of washing with ultrapure water and then with a dioxane solution at 20% in ultrapure water for 5 minutes at 30° C. with gentle stirring made it possible to remove the non-specific interactions between the sample and the test, due to the presence of macromolecules such as proteins that may interfere with the repair signal; • a repair step was performed in the presence of purified cell extracts (which contain the active enzymes of the various DNA lesion repair pathways) and of biotin-coupled modified nucleotides (dUTP). The repair of the lesions involved a phase of excision of the lesions followed by a resynthesis of the DNA fragment or of excised bases. […] The light signal observed and read on the luminometer was proportional to the amount of lesions repaired.
The percentage of protection observed in the presence of ROSs was calculated as the relative reduction of the lesional effect due to the OH^∘ species, that is to say: % protection={[RLU oxidant−RLU (oxidant+sample)]/RLU oxidant}×100 • where RLU=relative light units (arbitrary units of quantity of light).
The specific percentage of protection was corrected by the percentage of non-specific inhibition measured on the samples predamaged with UVC. It is an indication of the free-radical-scavenging activity due to the only added extracts.
The IC50 is the concentration in mg/ml of test product which gives 50% protective activity against the genotoxic agent OH^∘. The lower the value, the greater the antioxidant activity of the test product.

With `O=C(CCc1ccc(O)cc1)c1c(O)cc(O)cc1O` [phloretin], the Water solubility entry in data set [1] was “very low solubility”.
As for Catechin, the Specific protection in data set [2] (concentration 0.016 mg/ml) is 16%; in data set [2] (concentration 0.06 mg/ml) it was 28%; in data set [2] (concentration 0.25 mg/ml), 52%; in data set [2] (concentration 1 mg/ml) it was 65%. Also, in data set [2] (concentration giving 50% protective activity against the genotoxic agent OH°), the half-maximal inhibitory concentration (IC50) is 240 µg/mL.
